Assay [1] has as its system mushroom spines of hippocampal neurons. Description: Dendritic spine analysis in primary hippocampal neural cultures. It counts as cell-based, mouse. The settings on record: for mushroom spine loss: 30 nM for 16 hours. The protocol: FIGS. 4A-E. NSN21778 and Hyperforin rescue synaptic nSOC and mushroom spine loss in AD hippocampal neurons. (FIG. 4A) Chemical structure of NSN21778 and Hyperforin. (FIG. 4B) Time-course of GCaMP5.3 fluorescence signal changes in the spines of wild-type, PS1KI and APPKI hippocampal neurons. The time of extracellular Ca^2+ re-addition is indicated by a black bar above the traces. 100 μM DHPG was added 50 sec prior to Ca^2+ re-addition. The results are shown for control (CON) neurons and for neurons pretreated with 300 nM NSN21778 (+NSN) or 300 nM Hyperforin (+Hyp) for 30 min as indicated. For each experimental group individual spine (grey) and average (red) fluorescence traces are shown. (FIG. 4C) The average nSOC spine peak amplitude is shown for each group of cells shown on panel B. The mean AF/Fo signals for each group and presented as mean±SE (n≥45 spines). ***, p <0.001. (FIG. 4D) Confocal images of wild-type, PS1KI and APPKI hippocampal neurons transfected with TD-Tomato and fixed at DIV15-16. The images are shown for control neurons (CON) and for neurons treated with 30 nM NSN21778 (+NSN) or 30 nM Hyperforin (+Hyp) for 16 hours prior to fixation. Scale bar is 10 μm. (FIG. 4E) The average fraction of mushroom spines for each group of cells shown on FIG. 4D is presented as mean±SE (n≥18 neurons). ***, p <0.001.
FIGS. 5A-E. TRPC6 is a molecular target for NSN21778 and Hyperforin. (FIGS. 5A-B) Time course of Fura-2 Ca^2+ signals is shown for HEK293 cells transfected with EGFP plasmid (GFP) or combination of EGFP and TRPC6 plasmids (TRPC6). Cells were incubated in ACSF media containing 2 mM Ca^2+. In experiments shown in FIG. 5B, cells were moved to modified ACSF media containing 0.1 mM Ca^2+ for 2 min and then returned to the media containing 2 mM Ca^2+ with addition of 100 μM OAG. The time of addition of 1 μM Hyperforin (Hyp) or NSN21778 (NSN) is indicated by red bars above the Fura-2 traces. For each experimental group individual spine (grey) and average (red) fluorescence traces are shown. (FIG. 5C) The average Ca^2+ influx peak is shown for experiments presented on FIGS. 5A-B as mean±SE (n≥81). (FIG. 5D) Confocal images of wild-type and PS1KI hippocampal neurons transfected with TD-Tomato and fixed at DIV15-16. The neurons were infected with lentiviruses encoding control RNAi (siCtrl), RNAi against TRPC6 (siT6) or RNAi against Orai2 (siO2). The images are shown for no drug treated neurons (CON) and for neurons treated with 30 nM NSN21778 (+NSN) or 30 nM Hyperforin (+Hyp) for 16 hours prior to fixation. Scale bar is 10 μm. No drug treated group of wild-type and PS1KI neurons is from the same experiment as shown on FIG. 2A-J. (FIG. 5E) The average fraction of mushroom spines for each group of cells shown on panel A is presented as mean±SE (n≥19 neurons). ***, p <0.001.
Dendritic Spine Analysis in Primary Hippocampal Neural Cultures. The hippocampal cultures of PS1KI, APPKI and WT mice were established from postnatal day 0-1 pups and maintained in culture as the inventors described previously [Zhang, 2010 #5733]. For assessment of synapse morphology, hippocampal cultures were transfected with TD-Tomato plasmid at DIV7 using the calcium phosphate method and fixed (4% formaldehyde, 4% sucrose in PBS, pH 7.4) at DIV15-16. A Z-stack of optical section was captured using 100× objective with a confocal microscope (Carl Zeiss Axiovert 100M with LSM510). 18-20 cultured neurons from three batches of cultures were used for quantitative analysis per genotype. Quantitative analysis for dendritic spines was performed by using NeuronStudio software package [Rodriguez, 2008 #6276]. To classify the shape of neuronal spines in culture, the inventors adapted an algorithm from published method [Rodriguez, 2008 #6276]. In classification of spine shapes the inventors used the following cutoff values: aspect ratio for thin spines (AR_thin(crio))=2.5, head to neck ratio (HNR(crit))=1.4, and head diameter (HD(crit))=0.5 μm. […]

Assay [2] has as its target T1, TRPC6 (Homo sapiens, UniProt Q9Y210).
T1 construct: expressed in transfected cells; host or cells: HEK293
T1 sequence (Q9Y210 1-931): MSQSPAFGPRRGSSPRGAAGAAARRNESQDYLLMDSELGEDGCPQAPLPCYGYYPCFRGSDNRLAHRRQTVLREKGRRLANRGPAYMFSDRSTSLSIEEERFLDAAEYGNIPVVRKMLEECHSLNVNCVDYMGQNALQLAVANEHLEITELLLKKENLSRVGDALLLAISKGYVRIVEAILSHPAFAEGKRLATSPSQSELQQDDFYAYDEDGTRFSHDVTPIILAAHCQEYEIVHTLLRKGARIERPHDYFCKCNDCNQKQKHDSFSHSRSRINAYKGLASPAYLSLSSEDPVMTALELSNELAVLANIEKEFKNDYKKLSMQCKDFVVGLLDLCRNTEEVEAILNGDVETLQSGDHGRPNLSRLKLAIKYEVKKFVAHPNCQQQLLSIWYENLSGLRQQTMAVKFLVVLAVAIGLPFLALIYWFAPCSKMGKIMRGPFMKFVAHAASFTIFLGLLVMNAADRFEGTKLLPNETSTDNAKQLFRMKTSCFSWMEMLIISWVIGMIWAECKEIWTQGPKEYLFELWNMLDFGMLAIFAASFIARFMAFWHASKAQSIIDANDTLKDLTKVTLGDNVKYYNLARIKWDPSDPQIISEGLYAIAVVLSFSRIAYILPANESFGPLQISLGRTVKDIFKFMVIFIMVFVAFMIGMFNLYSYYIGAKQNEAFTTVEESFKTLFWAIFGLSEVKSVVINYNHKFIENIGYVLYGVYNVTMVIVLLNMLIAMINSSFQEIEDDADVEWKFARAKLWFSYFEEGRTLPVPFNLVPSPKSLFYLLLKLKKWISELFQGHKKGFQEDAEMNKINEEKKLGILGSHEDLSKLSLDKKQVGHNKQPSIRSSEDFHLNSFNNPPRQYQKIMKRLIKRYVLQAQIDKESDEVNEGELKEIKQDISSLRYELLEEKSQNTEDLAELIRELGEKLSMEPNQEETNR
Description: Fura-2 Ca2+ imaging in TRPC6-transfected HEK293 cells. It counts as cell-based. The settings on record: for potentiation of OAG-induced responses: preincubation 1 μM, 100 μM OAG.

Take `CC(=O)Nc1ccc(CCNc2ncnc3ccc(N)cc23)cc1` [NSN21778, N-{4-[2-(6-Amino-quinazolin-4-ylamino)-ethyl]-phenyl}-acetamide]: the mushroom spines result in assay [1] (PS1KI and APPKI neurons, 30 nM for 16 hr) is recorded as “complete rescue”. The mushroom spine loss entry in assay [1] (PS1KI cultures infected with control RNAi lentiviruses) is reported as “rescued mushroom spine loss”; in assay [1] (PS1KI hippocampal neurons following knockdown of TRPC6 or Orai2) it was “failed to rescue mushroom spine loss”; in assay [1] (wild-type neurons with knockdown of TRPC6 or Orai2) it was “failed to rescue”. In addition, the “fraction of mushroom spines” value in assay [1] (wild-type neurons, 30 nM for 16 hr) is recorded as “no significant effect”. In assay [2] (GFP or TRPC6 HEK293 cells preincubated in Ca2+-free media with 1 μM Tg (data not shown)), the “SOC in conditions of store depletion” value was “no additional effect”. The “Ca2+ influx” value in assay [2] (TRPC6-transfected HEK293 cells, 1 μM, 2 mM Ca2+) was “did not trigger Ca^2+ influx”. For the same molecule, the “potentiation of OAG-induced responses” value is “significant potentiation” in assay [2] (TRPC6-transfected cells, stores partially depleted (0.1 mM Ca2+)) and “not in control GFP cells” in assay [2] (control GFP cells, stores partially depleted).

(Values after patent US20180147206A1, “ACTIVATION OF NEURONAL STORE-OPERATED CALCIUM ENTRY PATHWAY FOR THE TREATMENT OF ALZHEIMER'S DISEASE” (The Board of Regents of the University of Texas System, priority 2015, published 2018).)
